From patent US8633242B2, “Benzylidene indanones and processes for preparation and use thereof” (Council of Scientific and Industrial Research, priority 2011, dated 2014)

Tests used:
DU-145 (prostate) = test: Sulphorhodamine B cytotoxicity assay, DU-145; format: cell-based, human; design: key to Human cancer cell lines IC50, DU-145 (prostate): Inactive: inactive, if IC50 > 100 μM; conditions: SRB assay, 48 hours incubation; for IC50: Homo sapiens, DU-145, read-out: Human cancer cell lines IC50, DU-145 (prostate)
Procedure: (§1) The benzylidene analogues were evaluated by Sulphorhodamine B Assay as per reported method [Skehan et al., J. Natl. Cancer Inst. 1990, 82, 1107]. The human cancer cell lines procured from National Cancer institute, Frederick, U.S.A. were used in present study. Cells were grown in tissue culture flasks in complete growth medium (RPMI-1640 medium with 2 mM glutamine, pH 7.4 supplemented with 10% fetal bovine serum, 100 μg/ml streptomycin and 100 units/ml penicillin) in a carbon dioxide incubator (37° C., 5% CO2, 90% RH). The cells at subconfluent stage were harvested from the flask by treatment with trypsin (0.05% in PBS (pH 7.4) containing 0.02% EDTA). Cells with viability of more than 98%, as determined by trypan blue exclusion, were used for determination of cytotoxicity. The cell suspension required concentration of cells was prepared in complete growth medium. Stock solution of 2×10^−2 M of compounds were prepared in DMSO and further dilution was carried out complete growth medium containing 50 μg/ml of gentamycin to obtained working test solution of required concentration. In vitro cytotoxicity against various human cancer cell lines was determined using 96-well cell culture plates. The 100 μl of cell suspension was added to each well of the 96-well cell culture plates. The cells were allowed to grow in CO2 incubator (37° C., 5% CO2, 90% RH) for 24 hours. The test materials in complete growth medium (100 μl) were added after 24 hours incubation to the wells containing cell suspension. The plates were further incubated for 48 hours (37° C. in an atmosphere of 5% CO2 and 90% relative humidity) in a carbon dioxide incubator after addition of test material and then the cell growth was stopped by gently layering trichloroacetic acid (50% TCA, 50 μl) on top of the medium in all the wells. The plates were incubated at 4° C. for one hour to fix the cells attached to the bottom of the wells. The liquid of all the wells was gently pipetted out and discarded. The plates were washed five times with distilled water to remove TCA, growth medium low molecular weight metabolites, serum proteins etc. and air-dried. Cell growth was measured by staining with sulforhodamine B dye. The adsorbed dye was dissolved in Tris-HCl Buffer (100 μl/well, 0.01M, pH 10.4) and plates were gently stirred for 10 minutes on a mechanical stirrer. The optical density (OD) was recorded on ELISA reader at 540 nm. 5-Fluorouracil, Paclitaxel (Taxol), Mitomycin-c and Adriamycin were used as positive controls.

tubulin protein = test: In-vitro tubulin polymerisation inhibition assay; format: biochemical; design: key to Tubulin polymerisation inhibition IC50: Inactive: inactive, if IC50 > 10 μM; conditions: for IC50: read-out: Tubulin polymerisation inhibition IC50; for IC50 / Tubulin polymerisation inhibition IC50: tubulin 3 mg/mL, 37° C., 340 nm, 1 h
Procedure: The tubulin polymerization experiment was performed using ‘assay kit’ (Cytoskeleton USA) following manufacturer's protocol based on the procedure described by of Shelanski et al. (1973) and Lee et al. (1977). Briefly, tubulin protein (3 mg/mL) in tubulin polymerization buffer (80 mM PIPES, pH 6.9, 2 mM MgCl2, 0.5 mM EGTA, 1 mM GTP and 15% glycerol) was placed in pre-warmed 96-well microtiter plates at 37° C. in the presence of test compounds with variable concentrations. All samples were mixed well and polymerization was monitored kinetically at 340 nm every min for 1 h using a Spectramax plate reader. Podophyllotoxin and etoposide were used as positive controls and DMSO as negative control. The IC50 value was determined from dose-dependent analysis and is defined as the concentration that inhibits the rate of polymerization by 50%.
Podophyllotoxin and etoposide, standard tubulin polymerisation inhibitors were used as positive controls.

A549 (Lung) = test: Sulphorhodamine B cytotoxicity assay, A549; format: cell-based, human; design: key to Human cancer cell lines IC50, A549 (Lung): Inactive: inactive, if IC50 > 100 μM; conditions: for IC50: read-out: Human cancer cell lines IC50, A549 (Lung)
Procedure: as §1

HCT (Colon) = test: Sulphorhodamine B cytotoxicity assay, HCT; format: cell-based, human; design: key to Human cancer cell lines IC50, HCT (Colon): Inactive: inactive, if IC50 > 100 μM; conditions: for IC50: read-out: Human cancer cell lines IC50, HCT (Colon)
Procedure: as §1

PC-3 (prostate) = test: Sulphorhodamine B cytotoxicity assay, PC-3; format: cell-based, human; design: key to Human cancer cell lines IC50, PC-3 (prostate): Inactive: inactive, if IC50 > 100 μM; conditions: for IC50: Homo sapiens, read-out: Human cancer cell lines IC50, PC-3 (prostate); for IC50 / Human cancer cell lines IC50, PC-3 (prostate): SRB assay, 48 hours incubation
Procedure: as §1

THP-1 (Leukemia) = test: Sulphorhodamine B cytotoxicity assay, THP-1; format: cell-based, human; design: key to Human cancer cell lines IC50, THP-1 (Leukemia): Inactive: inactive, if IC50 > 100 μM; conditions: for IC50: read-out: Human cancer cell lines IC50, THP-1 (Leukemia)
Procedure: as §1

MCF-7 (Breast cancer) = test: Sulphorhodamine B cytotoxicity assay, MCF-7; format: cell-based, human; conditions: Homo sapiens, MCF7; for IC50: SRB assay, 48 hours incubation, read-out: Human cancer cell lines IC50, MCF-7 (Breast cancer)
Procedure: as §1

HeLa (Cervix) = test: Sulphorhodamine B cytotoxicity assay, HeLa; format: cell-based, human; design: key to Human cancer cell lines IC50, HeLa (Cervix): Inactive: inactive, if IC50 > 100 μM; conditions: for IC50 / Human cancer cell lines IC50, HeLa (Cervix): SRB assay, 48 hours incubation; for IC50: read-out: Human cancer cell lines IC50, HeLa (Cervix)
Procedure: as §1

[1] = Homo sapiens, A549, SRB assay, 48 hours incubation
[2] = Homo sapiens, SRB assay, 48 hours incubation
[3] = Homo sapiens, THP-1, SRB assay, 48 hours incubation

Row | Compound | IC50 (A549 (Lung); [1]) [µM] | IC50 (HCT (Colon); [2]) [µM] | IC50 (THP-1 (Leukemia); [3]) [µM] | IC50 (MCF-7 (Breast cancer)) [µM] | Human cancer cell lines IC50, DU-145 (prostate) (DU-145 (prostate)) | melting point [°C] | Tubulin polymerisation inhibition IC50 (tubulin protein) | Human cancer cell lines IC50, PC-3 (prostate) (PC-3 (prostate)) | Human cancer cell lines IC50, HeLa (Cervix) (HeLa (Cervix)) | other results
1 | COc1cc([C@@H]2c3cc4c(cc3[C@H](O)[C@H]3COC(=O)[C@H]23)OCO4)cc(OC)c1OC [Podophyllotoxin, reference compound] | < 1 | < 1 | < 1 | < 1 | – | – | – | – | – | IC50 (DU-145 (prostate)): 91.5 µM; IC50 (tubulin protein): […]; IC50 (PC-3 (prostate)): 91.5 µM; IC50 (HeLa (Cervix); Homo sapiens, HeLa): < 1 µM
2 | COc1cc(C2C(=Cc3ccccc3)C(=O)c3cc(OC)c(OC)c(OC)c32)cc(OC)c1OC (centres unmarked) [Compound 14, 2-benzylidene, 3-(3′,4′,5′-trimethoxyphenyl)-4,5,6-trimethoxy indan-1-one] | 47.5 | 14.9 | 32.7 | 42.5 | Inactive | 139 to 141 | Inactive | – | – | IC50 (PC-3 (prostate)): 50.6 µM; IC50 (HeLa (Cervix); Homo sapiens, HeLa): 14.1 µM
3 | O=c1[nH]cc(F)c(=O)[nH]1 [5-Fluorouracil, reference compound] | – | – | – | – | – | – | – | – | – | inhibition at 20 µM (HCT (Colon); Homo sapiens, positive control at 20 μM): 65%; inhibition at 20 µM (THP-1 (Leukemia); Homo sapiens, THP-1, positive control at 20 μM): 74%; inhibition at 20 µM (HeLa (Cervix); Homo sapiens, HeLa, positive control at 20 μM): 70%
4 | COc1cc(C2/C(=C/c3cccc4c3OCO4)C(=O)c3cc(OC)c(OC)c(OC)c32)cc(OC)c1OC (centres unmarked) [Compound 17, 2-(2″,3″-methylenedioxybenzlidene), 3-(3′,4′,5′-trimethoxyphenyl)-4,5,6-trimethoxy indan-1-one] | 82.2 | 45.9 | – | 57.2 | Inactive | 180 to 182 | Inactive | Inactive | Inactive | Human cancer cell lines IC50, THP-1 (Leukemia) (THP-1 (Leukemia); SRB assay, 48 hours incubation): Inactive
5 | COc1cccc2c1C(=O)c1c(O)c3c(c(O)c1C2=O)C[C@@](O)(C(=O)CO)C[C@@H]3O[C@H]1C[C@H](N)[C@H](O)[C@H](C)O1 [Adriamycin, reference compound] | – | – | – | – | – | – | – | – | – | inhibition at 1 µM (MCF-7 (Breast cancer); positive control at 1 μM): 65%
6 | COc1cc(C2/C(=C/c3ccc([N+](=O)[O-])cc3)C(=O)c3cc(OC)c(OC)c(OC)c32)cc(OC)c1OC (centres unmarked) [Compound 11, 2-(4″-nitrobenzlidene),3-(3′,4′,5′-trimethoxyphenyl)-4,5,6-trimethoxy indan-1-one] | – | 97.3 | 89.5 | 88.1 | Inactive | 190 to 192 | Inactive | Inactive | Inactive | Human cancer cell lines IC50, A549 (Lung) (A549 (Lung); SRB assay, 48 hours incubation): Inactive
7 | COc1cc(C2/C(=C/c3ccc(C(F)(F)F)cc3)C(=O)c3cc(OC)c(OC)c(OC)c32)cc(OC)c1OC (centres unmarked) [Compound 20, 2-(4″-trifluoromethylbenzylidene), 3-(3′,4′,5′-trimethoxyphenyl)-4,5,6-trimethoxy indan-1-one] | 61.5 | 92 | 8.67 | 68.9 | Inactive | 188 to 190 | – | – | Inactive | inhibition of tubulin polymerisation, in words (tubulin protein): strong inhibition; IC50 (tubulin protein): 0.6 µM; IC50 (PC-3 (prostate)): 27.9 µM; activity against leukemia cell lines (THP), in words (THP-1 (Leukemia)): potent activity
8 | CC(=O)O[C@H]1C(=O)[C@@]2(C)[C@H]([C@H](OC(=O)c3ccccc3)[C@]3(O)C[C@H](OC(=O)[C@H](O)[C@@H](NC(=O)c4ccccc4)c4ccccc4)C(C)=C1C3(C)C)[C@]1(OC(C)=O)CO[C@@H]1C[C@@H]2O [Paclitaxel, reference compound] | – | – | – | – | – | – | – | – | – | inhibition at 1 µM (A549 (Lung); Homo sapiens, A549, positive control at 1 μM): 69%
9 | COc1ccccc1/C=C1\C(=O)c2cc(OC)c(OC)c(OC)c2C1c1cc(OC)c(OC)c(OC)c1 (centres unmarked) [Compound 19, 2-(2″-methoxybenzylidene), 3-(3′,4′,5′-trimethoxyphenyl)-4,5,6-trimethoxy indan-1-one] | 62.6 | – | 29.3 | – | – | 191 to 192 | Inactive | Inactive | Inactive | IC50 (DU-145 (prostate)): 21.5 µM; Human cancer cell lines IC50, HCT (Colon) (HCT (Colon); SRB assay, 48 hours incubation): Inactive
10 | COc1cc([C@@H]2c3cc4c(cc3[C@@H](O[C@@H]3O[C@@H]5CO[C@@H](C)O[C@H]5[C@H](O)[C@H]3O)[C@H]3COC(=O)[C@H]23)OCO4)cc(OC)c1O [Etoposide, reference compound] | 5.4 | 6.5 | < 1 | 1.5 | Inactive | – | – | Inactive | – | IC50 (tubulin protein): […]; IC50 (HeLa (Cervix); Homo sapiens, HeLa): < 1 µM
11 | CO[C@@]12[C@H](COC(N)=O)C3=C(C(=O)C(C)=C(N)C3=O)N1C[C@@H]1N[C@@H]12 [Mitomycin-c, reference compound] | – | – | – | – | – | – | – | – | – | % Inhibition, PC-3 (Prostate) (PC-3 (prostate); positive control at 1 μM): 61%
